#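 The compound was tested at five concentrations on cells cultured in 96-well plates, with a 48-hour exposure period. Here, GI50 denotes the concentration required for 50% inhibition of growth. TGI is the concentration that stops growth completely.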
# Experiments:
# Assay in all cases: NCI-60 cell line screen, 48 h
# LOX IMVI melanoma = tested on: LOX IMVI melanoma
# SW-620 colon = tested on: SW-620 colon
# K-562 leukemia = tested on: K-562 leukemia
# TK-10 renal = tested on: TK-10 renal
# MDA-MB-435 = tested on: MDA-MB-435
# EKVX NSCLC = tested on: EKVX NSCLC
# SF-268 CNS = tested on: SF-268 CNS
# SK-OV-3 ovarian = tested on: SK-OV-3 ovarian
# HCT-15 colon = tested on: HCT-15 colon
# RPMI-8226 leukemia = tested on: RPMI-8226 leukemia
# OVCAR-8 ovarian = tested on: OVCAR-8 ovarian
# UACC-257 melanoma = tested on: UACC-257 melanoma
# SK-MEL-2 melanoma = tested on: SK-MEL-2 melanoma
# M14 melanoma = tested on: M14 melanoma
# DU-145 prostate = tested on: DU-145 prostate
# SF-539 CNS = tested on: SF-539 CNS
# HOP-62 NSCLC = tested on: HOP-62 NSCLC
# COLO 205 colon = tested on: COLO 205 colon
# OVCAR-4 ovarian = tested on: OVCAR-4 ovarian
# PC-3 prostate = tested on: PC-3 prostate
# HCC-2998 colon = tested on: HCC-2998 colon
# HL-60(TB) leukemia = tested on: HL-60(TB) leukemia
# SK-MEL-28 melanoma = tested on: SK-MEL-28 melanoma
# NCI-H522 lung = tested on: NCI-H522 lung
# OVCAR-5 ovarian = tested on: OVCAR-5 ovarian
# OVCAR-3 ovarian = tested on: OVCAR-3 ovarian
# MDA-MB-231 breast = tested on: MDA-MB-231 breast
# MOLT-4 leukemia = tested on: MOLT-4 leukemia
# HOP-92 NSCLC = tested on: HOP-92 NSCLC
# NCI-H226 lung = tested on: NCI-H226 lung
# T-47D breast = tested on: T-47D breast
# 786-0 renal = tested on: 786-0 renal
# MCF7 breast = tested on: MCF7 breast
# CCRF-CEM leukemia = tested on: CCRF-CEM leukemia
# SN12C renal = tested on: SN12C renal
# U251 CNS = tested on: U251 CNS
# NCI/ADR-RES ovarian = tested on: NCI/ADR-RES ovarian
# HS 578T breast = tested on: HS 578T breast
# BT-549 breast = tested on: BT-549 breast
# A549 NSCLC = tested on: A549 NSCLC
# NCI-H460 lung = tested on: NCI-H460 lung
# IGROV1 ovarian = tested on: IGROV1 ovarian
# SR leukemia = tested on: SR leukemia
# ACHN renal = tested on: ACHN renal
# HCT-116 colon = tested on: HCT-116 colon
# RXF 393 renal = tested on: RXF 393 renal
# CAKI-1 renal = tested on: CAKI-1 renal
# SK-MEL-5 melanoma = tested on: SK-MEL-5 melanoma
# UACC-62 melanoma = tested on: UACC-62 melanoma
# NCI-H23 lung = tested on: NCI-H23 lung
# SNB-19 CNS = tested on: SNB-19 CNS
# KM12 colon = tested on: KM12 colon
# UO-31 renal = tested on: UO-31 renal
# SF-295 CNS = tested on: SF-295 CNS
smiles,measurement,setting,value
CCN(CC)CCn1c(N)c(-c2nc3ccccc3n2C)c2nc(C#N)c(C#N)nc21,GI50,LOX IMVI melanoma,0.97 µM
same,TGI,LOX IMVI melanoma,2.62 µM
same,GI50,SW-620 colon,2.59 µM
same,TGI,SW-620 colon,> 21.8 µM
same,GI50,K-562 leukemia,3.31 µM
same,TGI,K-562 leukemia,> 42.2 µM
same,GI50,TK-10 renal,7.16 µM
same,TGI,TK-10 renal,14.2 µM
same,GI50,MDA-MB-435,6.23 µM
same,TGI,MDA-MB-435,> 32.4 µM
same,GI50,EKVX NSCLC,7.1 µM
same,TGI,EKVX NSCLC,20.5 µM
same,GI50,SF-268 CNS,3.64 µM
same,TGI,SF-268 CNS,22.4 µM
same,GI50,SK-OV-3 ovarian,5.21 µM
same,TGI,SK-OV-3 ovarian,14.3 µM
same,GI50,HCT-15 colon,5.9 µM
same,TGI,HCT-15 colon,> 27.1 µM
same,GI50,RPMI-8226 leukemia,1.97 µM
same,TGI,RPMI-8226 leukemia,> 12.1 µM
same,GI50,OVCAR-8 ovarian,3.43 µM
same,TGI,OVCAR-8 ovarian,13.8 µM
same,GI50,UACC-257 melanoma,2.23 µM
same,TGI,UACC-257 melanoma,10.3 µM
same,GI50,SK-MEL-2 melanoma,6.28 µM
same,TGI,SK-MEL-2 melanoma,25.6 µM
same,GI50,M14 melanoma,7.21 µM
same,TGI,M14 melanoma,30.8 µM
same,GI50,DU-145 prostate,3.93 µM
same,TGI,DU-145 prostate,13 µM
same,GI50,SF-539 CNS,2.8 µM
same,TGI,SF-539 CNS,9.43 µM
same,GI50,HOP-62 NSCLC,2.65 µM
same,TGI,HOP-62 NSCLC,11 µM
same,GI50,COLO 205 colon,3.84 µM
same,TGI,COLO 205 colon,> 28.1 µM
same,GI50,OVCAR-4 ovarian,1.86 µM
same,TGI,OVCAR-4 ovarian,9.91 µM
same,GI50,PC-3 prostate,1.8 µM
same,TGI,PC-3 prostate,> 19.5 µM
same,GI50,HCC-2998 colon,0.696 µM
same,TGI,HCC-2998 colon,1.41 µM
same,GI50,HL-60(TB) leukemia,2.84 µM
same,TGI,HL-60(TB) leukemia,> 50 µM
same,GI50,SK-MEL-28 melanoma,0.6 µM
same,TGI,SK-MEL-28 melanoma,3.02 µM
same,GI50,NCI-H522 lung,3.72 µM
same,TGI,NCI-H522 lung,24.9 µM
same,GI50,OVCAR-5 ovarian,3.96 µM
same,TGI,OVCAR-5 ovarian,12.7 µM
same,GI50,OVCAR-3 ovarian,1.52 µM
same,TGI,OVCAR-3 ovarian,7.31 µM
same,GI50,MDA-MB-231 breast,0.295 µM
same,TGI,MDA-MB-231 breast,1.71 µM
same,GI50,MOLT-4 leukemia,1.81 µM
same,TGI,MOLT-4 leukemia,11.1 µM
same,GI50,HOP-92 NSCLC,2.5 µM
same,TGI,HOP-92 NSCLC,12.1 µM
same,GI50,NCI-H226 lung,9.57 µM
same,TGI,NCI-H226 lung,39.8 µM
same,GI50,T-47D breast,1.68 µM
same,GI50,786-0 renal,1.01 µM
same,TGI,786-0 renal,2.91 µM
same,GI50,MCF7 breast,3.08 µM
same,TGI,MCF7 breast,> 50 µM
same,GI50,CCRF-CEM leukemia,4.25 µM
same,TGI,CCRF-CEM leukemia,37.9 µM
same,GI50,SN12C renal,3.09 µM
same,TGI,SN12C renal,14.2 µM
same,GI50,U251 CNS,1.27 µM
same,TGI,U251 CNS,4.06 µM
same,GI50,NCI/ADR-RES ovarian,3.1 µM
same,TGI,NCI/ADR-RES ovarian,8.86 µM
same,GI50,HS 578T breast,2.52 µM
same,TGI,HS 578T breast,11.7 µM
same,GI50,BT-549 breast,7.64 µM
same,TGI,BT-549 breast,18.3 µM
same,GI50,A549 NSCLC,3.2 µM
same,TGI,A549 NSCLC,13.7 µM
same,GI50,NCI-H460 lung,4.58 µM
same,TGI,NCI-H460 lung,38.5 µM
same,GI50,IGROV1 ovarian,1.3 µM
same,TGI,IGROV1 ovarian,14.3 µM
same,GI50,SR leukemia,12.2 µM
same,TGI,SR leukemia,> 50 µM
same,GI50,ACHN renal,0.696 µM
same,TGI,ACHN renal,1.53 µM
same,GI50,HCT-116 colon,1.94 µM
same,TGI,HCT-116 colon,> 18.5 µM
same,GI50,RXF 393 renal,1.98 µM
same,TGI,RXF 393 renal,4.46 µM
same,GI50,CAKI-1 renal,3.7 µM
same,TGI,CAKI-1 renal,11.2 µM
same,GI50,SK-MEL-5 melanoma,3.04 µM
same,TGI,SK-MEL-5 melanoma,12.8 µM
same,GI50,UACC-62 melanoma,3.44 µM
same,TGI,UACC-62 melanoma,15 µM
same,GI50,NCI-H23 lung,1.7 µM
same,TGI,NCI-H23 lung,16.2 µM
same,GI50,SNB-19 CNS,7.3 µM
same,TGI,SNB-19 CNS,21.5 µM
same,GI50,KM12 colon,5.65 µM
same,TGI,KM12 colon,20.3 µM
same,GI50,UO-31 renal,2.06 µM
same,TGI,UO-31 renal,6.61 µM
same,GI50,SF-295 CNS,5.62 µM
same,TGI,SF-295 CNS,15.6 µM

# Reference: PubChem BioAssay (NCI)
